In patent US20070111251A1, “Chemical address tags” (priority 2003, published 2007):

System: live UACC-62 human melanoma cells
Assay: Organelle-binding test: subcellular localization of styryl library compounds by fluorescence microscopy
Assay type: cell-based
Parameters: key to experimentally determined localization (subscript): The subscript m indicates experimentally determined mitochondrial localization; The subscript o indicates experimentally determined non-mitochondrial localization
Details: for experimentally determined localization (subscript): mitochondrial vs non-mitochondrial, live UACC-62 cells; for representative localization: FIG. 5, live UACC-62 cells
Experimental: The synthesis was designed so that the reaction mixture can be used directly in biological screening; toxic catalysts (e.g., such as strong acids, bases, and metals) were avoided, and most of the low-boiling point solvents and catalysts (e.g., pyrrolidine) were removed during the microwave reaction, leaving only DMSO, a common solvent for biological sample preparation. In some embodiments, without further purification, the library compounds were incubated with live UACC-62 human melanoma cells growing on glass bottom 96-well plates, and the localizations of the different compounds in the cells were determined using an Axiovert (Carl Zeiss, Inc., Thornwood, N.Y.) microscope (λex=405, 490, and 570 nm; λem>510 nm) with a 100× Zeiss oil immersion objective. […] The images in FIG. 5 show cells stained with selected fluorescent compounds.
Unless otherwise noted in this example, the materials and solvents were obtained from commercial suppliers and were used without further purification. The plate reader used in this example was a Spectra Max Gemini XSF (Molecular Devices, Corp., Sunnyvale, Calif.). In preferred embodiments, for organelle-binding tests, UACC-62 melanoma cells were selected amongst a panel of 60 human cancer cell lines, because their well-spread morphology on glass made them ideally suited for imaging purposes as well as their relevance to biomedical research. (See e.g., R. H. Shoemaker et al., Development of human tumor cell line panels for use in disease oriented drug screening. In: Hall, T. ed., Prediction of Response to Anti-cancer Chemotherapy, New York N.Y.: Alan Liss, 265-286 [1988]).
In some of these embodiments, UACC-62 cells (obtained from the Developmental Therapeutics Program at the National Cancer Institute) were grown in RPMI medium supplemented with 10% fetal calf serum. For microscopy, cells were plated on 96 well tissue-culture plates (Falcon) overnight, in RPMI plus 10% fetal calf serum, at 37° C. in 5% CO2/95% air. Cells were incubated with compounds at an approximate concentration of 50 μM for 1 hour.
A Zeiss Axiovert 135M (Carl Zeiss, Inc., Thornwood, N.Y.) inverted fluorescence microscope outfitted with a FITC/TRITC multipass filter cube (Chroma Technology, Corp., Rockingham, Vt.) was used for screening and routine cell biological fluorescence imaging applications. In some embodiments, epifluorescence microscopy was performed using a Zeiss Axiovert epifluorescence microscope equipped with a 20× objective.
The library compounds, without further purification, were incubated with live UACC-62 human melanoma cells growing on glass bottom 96-well plates (Sigma-Aldrich Corp., St. Louis, Mo.), and the localizations of the different compounds in the cells were determined by an inverted fluorescence microscope (λex=405, 490, and 570 nm; λem>510 nm) at 1000× magnification. Based on their morphology and subcellular distribution, the localizations were ascribed to mitochondria, ER (endoplasmic reticulum), nucleoli, nuclear, and cytoplasmic staining patterns such as diffuse (based on the homogenous staining appearance and exclusion from the nucleus), granular (punctate staining pattern, generally associated with the cell margins) or vesicular (heterogeneous staining pattern, generally associated with the nuclear periphery). Localization studies were performed without a priori information of the compounds' molecular structures. It was possible to ascribe the localization of the compounds to nucleus or cytoplasm, as these organelles are clearly discernible with phase contrast optics. Similarly, it was possible to ascribe localization to nucleoli, as these structures appeared as the most prominent, phase-dense structures within the nucleus. Localization to mitochondria was based on the elongated, characteristic shape of these organelles, which stain positive with established mitochondrial-specific fluorescent probes, like […] or JC-1. (L. B. Chen, Methods Cell Bio., 29:103-123 [1989]). […]

C[n+]1c(C=Cc2cccc([N+](=O)[O-])c2)ccc2ccccc21.[I-] [Compound A21-B8]
experimentally determined localization (subscript): m

Oc1ccc(C=Cc2cc[n+](C34CC5CC(CC(C5)C3)C4)cc2)cc1.[Br-] [Compound A16-B2]
experimentally determined localization (subscript): m

COc1ccc2ccccc2c1C=Cc1cc[n+](C)cc1.[I-] [Compound A23-B1]
experimentally determined localization (subscript): m

COc1ccc2c(ccc(/C=C/c3ccc(N(C)C)cc3)[n+]2C)c1.[I-] [Compound 119]
representative localization: nucleolar

C(=Cc1c[nH]c2ccccc12)c1cc[n+](C23CC4CC(CC(C4)C2)C3)cc1.[Br-] [Compound A24-B2]
representative localization: mitochondria | experimentally determined localization (subscript): m

COc1ccc(C=Cc2ccc3cc(OC)ccc3[n+]2C)cc1.[I-] [Compound A10-B9]
experimentally determined localization (subscript): o

COc1cc(OC)c(OC)cc1C=Cc1cc[n+](C23CC4CC(CC(C4)C2)C3)cc1.[Br-] [Compound A38-B2]
experimentally determined localization (subscript): m

COc1ccc2c(ccc(C=Cc3cccc([N+](=O)[O-])c3)[n+]2C)c1.[I-] [Compound A21-B9]
experimentally determined localization (subscript): o

COc1cc(OC)c(OC)cc1C=Cc1cc[n+](C)c(-c2cc(C)ccn2)c1.[I-] [Compound A38-B10]
experimentally determined localization (subscript): m

COc1ccc2c(ccc(C=CCc3ccccc3)[n+]2C)c1.[I-] [Compound A1-B9]
experimentally determined localization (subscript): m

COc1ccc2c(ccc(C=Cc3ccc(NC(C)=O)cc3)[n+]2C)c1.[I-] [Compound A18-B9]
experimentally determined localization (subscript): o

COc1cc(OC)c(OC)cc1C=Cc1cc[n+](C)c2ccccc12.[I-] [Compound A38-B7]
experimentally determined localization (subscript): o

C[n+]1ccc(C=CCc2ccccc2)cc1.[I-] [Compound A1-B1]
experimentally determined localization (subscript): o

COc1ccc2c(ccc(C=CC=Cc3ccc(N(C)C)cc3)[n+]2C)c1.[I-] [Compound 137]
representative localization: cytosolic

CCc1ccc(C=Cc2ccc(OCc3ccccc3)c(OCc3ccccc3)c2)[n+](C)c1.[I-] [Compound A12-B5]
experimentally determined localization (subscript): o

C[n+]1ccc(C=Cc2ccc(OCc3ccccc3)c(OCc3ccccc3)c2)cc1.[I-] [Compound A12-B1]
representative localization: mitochondria | experimentally determined localization (subscript): m

C[n+]1ccc(C=Cc2c[nH]c3ccccc23)cc1.[I-] [Compound A24-B1]
experimentally determined localization (subscript): o

C[n+]1ccccc1C=Cc1ccc(OCc2ccccc2)c(OCc2ccccc2)c1.[I-] [Compound A12-B3]
experimentally determined localization (subscript): m

Cc1cc[n+](C)c(/C=C/c2c[nH]c3ccccc23)c1.[I-] [Compound A24-B11]
experimentally determined localization (subscript): m

Cc1cccc(C=CC=Cc2ccccc2)[n+]1C.[I-] [Compound A35-B12]
experimentally determined localization (subscript): m

Cc1cccc(C=Cc2ccc(OCc3ccccc3)c(OCc3ccccc3)c2)[n+]1C.[I-] [Compound A12-B12]
experimentally determined localization (subscript): o

COc1ccc(C=Cc2cc[n+](C34CC5CC(CC(C5)C3)C4)cc2)c2ccccc12.[Br-] [Compound A14-B2]
experimentally determined localization (subscript): o

C[n+]1c(C=Cc2ccc(OCc3ccccc3)c(OCc3ccccc3)c2)ccc2ccccc21.[I-] [Compound H12]
representative localization: vesicular

C[n+]1c(C=Cc2ccc3c(c2)OCO3)ccc2ccccc21.[I-] [Compound A39-B8]
experimentally determined localization (subscript): o

CN(C)c1ccc(C=Cc2cc[n+](C)cc2)c2ccccc12.[I-] [Compound A27-B1]
experimentally determined localization (subscript): o

COc1ccc2ccccc2c1C=Cc1c(C)ccc[n+]1C.[I-] [Compound A23-B4]
experimentally determined localization (subscript): o

C[n+]1c(C=CCc2ccccc2)ccc2ccccc21.[I-] [Compound A1-B8]
experimentally determined localization (subscript): m

C[n+]1ccc(C=Cc2ccc(OCc3ccccc3)c(OCc3ccccc3)c2)c2ccccc21.[I-] [Compound A12-B7]
experimentally determined localization (subscript): m

Cc1ccnc(-c2cc(C=CC=Cc3ccc(N(C)C)cc3)cc[n+]2C)c1.[I-] [Compound A37-B10]
representative localization: reticular | experimentally determined localization (subscript): o

C[n+]1ccc(C=Cc2ccccc2[N+](=O)[O-])c2ccccc21.[I-] [Compound A20-B7]
experimentally determined localization (subscript): m

COc1ccc2ccccc2c1C=Cc1cccc[n+]1C.[I-] [Compound A23-B3]
experimentally determined localization (subscript): o

COc1ccc(C=Cc2ccc3ccccc3[n+]2C)cc1O.[I-] [Compound A15-B8]
experimentally determined localization (subscript): m

Cc1ccc[n+](C)c1C=CC=Cc1ccc(N(C)C)cc1.[I-] [Compound A37-B4]
experimentally determined localization (subscript): m

Cc1ccnc(-c2cc(C=CC=Cc3ccccc3)cc[n+]2C)c1.[I-] [Compound A35-B10]
experimentally determined localization (subscript): o

Cc1ccnc(-c2cc(C=CCc3ccccc3)cc[n+]2C)c1.[I-] [Compound A1-B10]
experimentally determined localization (subscript): m

Cc1cc(C)[n+](C)c(C=Cc2ccc(OCc3ccccc3)c(OCc3ccccc3)c2)c1.[I-] [Compound A12-B13]
experimentally determined localization (subscript): o

C[n+]1c(C=Cc2ccc3c(c2)Cc2ccccc2-3)ccc2ccccc21.[I-] [Compound H28]
representative localization: nuclear

CC(=O)Nc1ccc(C=Cc2ccc3ccccc3[n+]2C)cc1.[I-] [Compound A18-B8]
experimentally determined localization (subscript): m

CN(C)c1ccc(C=Cc2ccc3ccccc3[n+]2C)c2ccccc12.[I-] [Compound A27-B8]
experimentally determined localization (subscript): m

C(=Cc1cc[n+](C23CC4CC(CC(C4)C2)C3)cc1)Cc1ccccc1.[Br-] [Compound A1-B2]
experimentally determined localization (subscript): o

CN(C)c1ccc(C=Cc2ccc3ccccc3[n+]2C)cc1.[I-] [Compound A19-B8]
experimentally determined localization (subscript): o
